In patent US10988500B2, “Lipid A mimics, methods of preparation, and uses thereof” (Immunovaccine Technologies Inc., priority 2015, dated 2021):

What was measured:
[1] = system: C3 tumors (HPV16-expressing C3 cells); assay: C3 tumor challenge, oil-based (IFA) vaccine (Example 11); type: in vivo, mouse (C57BL6); conditions: at 28 days; FP peptide 10 micrograms in oil (IFA) with 10 micrograms lipid A mimic, FIG. 5
Text: (§1) Pathogen-free, female C57BL6 mice, 6-8 weeks of age were purchased from Charles River Laboratories (St. Constant, Quebec, Canada) and were housed according to institutional guidelines with water and food ad libitum under filter controlled air circulation.
(§2) The C3 tumor cell line used in this study is a well-described mouse model for pre-clinical cervical cancer research. HPV16-expressing C3 cells are derived from B6 mouse embryo cells transformed with the complete HPV16 genome under its own promoter and an activated-ras oncogene. The C3 cell line develops tumors when injected subcutaneously and has been used in cancer challenge studies to examine the efficacy of vaccine administered before or after C3 tumor cell implantation. The C3 cell line was maintained in Iscove Modified Dulbecco's Medium (IMDM; Sigma, St. Louis, Mo.) supplemented with 10% heat-inactivated fetal calf serum (Hyclone), 2 mM 1-glutamine, […] 2-mercaptoethanol, penicillin and streptomycin. Cells were incubated at 37° C./5% CO2.
(§3) The HPV16E7 (H-2Db) peptide 49-67, RAHYNIVTF (SEQ ID NO: 1), containing a CTL epitope was fused to PADRE containing a CD4+ T helper epitope by Polypeptide Group (San Diego, Calif., USA). This peptide is hereafter designated as FP.
To formulate the vaccine herein, FP peptide was solubilized in dimethyl sulfoxide and mixed with Incomplete Freund's adjuvant (IFA). […]

[2] = system: bone marrow dendritic cells of C3H/HeOuJ (wild-type) mice; assay: Dendritic cell activation (CD40/CD86, flow cytometry), wild-type cells (Example 13); type: cell-based, mouse; conditions: FIG. 7; for expression of CD40 and CD86 on CD11c positive dendritic cells: wild-type dendritic cells, 20 micrograms/millilitre, overnight stimulation; for induction of CD40 and CD86 relative to LPS: wild-type mice dendritic cells
Procedure: (§4) Pathogen-free, female C3H/HeOuJ (wild-type) mice and C3H/HeJ (TLR4 mutant) mice, 6-8 weeks of age were purchased from the Jackson Laboratory (Bar Harbor, Me., USA) and were housed according to institutional guidelines with water and food ad libitum under filter controlled air circulation.
(§5) Dendritic cells were prepared from bone marrow of either wild-type or TLR4 mutant mice as follows. Femurs and tibia bones were isolated from naïve mice and flushed under sterile conditions with phosphate buffered saline. Red blood cells were lysed using ammonium chloride potassium lysing solution. Cells were counted and resuspended in complete RMPI 1640 media containing 10% fetal bovine serum (Hyclone, Nepean, ON, Canada), 1% penicillin-streptomycin (Gibco, Burlington, ON, Canada), 2 millimolar L-glutamine (Gibco), 1% HEPES buffer (Gibco) and […] beta-mercaptoethanol (Sigma-Aldrich, Oakville, ON, Canada) at a concentration of 1.2×10E6 cells/millitre. Cells were cultured in a 6-well plate supplemented with 10 nanograms/milliliter of GM-CSF (Peprotech, Rocky Hill, N.J., USA) for 8 days, additional media was added on day 3 and day 6. On day 7, cells were stimulated with JL-265 or JL-266 prepared in DMSO, or DMSO vehicle control, or poly I:C (Thermo-Fisher), or lipopolysaccharide (LPS; Sigma-Aldrich). Non-adherent cells were collected on day 8 and stained with fluorochrome-conjugated antibodies specific for CD11c (clone), CD40 (clone) or CD86 (Clone). Cells were analyzed by flow cytometry using a FACSCalibur (BD Bioscience, Mississauga ON, Canada) and Win List 3D 7.0 software (Verity Software House, Topsham, Me., USA).
(§6) Results were analysed by gating first on CD11c positive cells (dendritic cell marker), then determining the percent that were double positive for CD40 or CD86.

[3] = system: C3 tumors (HPV16-expressing C3 cells); assay: C3 tumor challenge, aqueous liposome vaccine (Example 10); type: in vivo, mouse (C57BL6); conditions: for Tumor Volume (mm^3): Table 1, Example 10, FP peptide 10 micrograms + lipid A mimic 10 micrograms in liposomes, water carrier, s.c. on day 5 after C3 implantation; for tumor volumes compared to control groups: at 28 days, liposome vaccine, FIG. 4
Text: as §1, §2, §3
To formulate the vaccines herein, 160 micrograms of FP was mixed with a DOPC/cholesterol mixture (10:1, w/w, Lipoid GmbH, Germany) dissolved in tert-butanol. When lipid A mimics were included, 160 micrograms of JL-265 or JL-266 were added to the FP/DOPC/chol mixture. The mixture was lyophilized and then reconstituted in reconstituted in […] of sterile water to formulate liposomes containing antigen with or without lipid A mimic. Each vaccine dose was 50 microlitres and contained 10 micrograms of FP peptide with or without 10 micrograms of lipid A mimic (JL-265 or JL-266).
(§7) To test the efficacy of these liposome-based vaccine formulations, groups of mice (7 mice per group) were implanted subcutaneously in the left flank with 5×10E5 C3 cells suspended in 100 microlitres of HBSS media. Five days later, mice were vaccinated subcutaneously in the right flank with 50 microlitres of vaccine. Mice in Group 1 were vaccinated with FP peptide (10 micrograms) in liposomes containing no lipid A mimic. Mice in Group 2 were vaccinated with FP peptide (10 micrograms) in liposomes containing JL-265 (10 micrograms). Mice in Group 3 were vaccinated with FP peptide (10 micrograms) in liposomes containing JL-266 (10 micrograms). Mice in Group 4 served as a tumor growth control and were vaccinated with saline containing no antigen or lipid A mimic.

[4] = system: bone marrow dendritic cells of C3H/HeJ (TLR4 mutant) mice; assay: Dendritic cell activation (CD40/CD86, flow cytometry), TLR4 mutant cells (Example 13); type: cell-based, mouse; conditions: FIG. 7; for expression of CD40 and CD86 on CD11c positive dendritic cells, versus wild-type: TLR4 mutant dendritic cells, 20 micrograms/millilitre, overnight stimulation; for induction of CD40 and CD86 relative to LPS: TLR mutant mice dendritic cells
Procedure: as §4, §5, §6

[5] = system: C3 tumors (HPV16-expressing C3 cells); assay: C3 tumor challenge, DepoVax (DPX) vaccine (Example 12); type: in vivo, mouse (C57BL6); conditions: for tumor volume fold smaller than control DepoVax composition (Group 1): Table 2, DepoVax; for Tumor Volume (mm^3): Table 2, Example 12, FP peptide 10 micrograms + lipid A mimic 10 micrograms in DepoVax, s.c. on day 5 after C3 implantation; for tumor volumes compared to control groups: at 40 days, DPX vaccine, FIG. 6
Text: as §1, §2, §3
(§8) To formulate vaccines described herein, a 10:1 mixture of dioleoyl phosphatidylcholine (DOPC) (120 milligrams/mL) and cholesterol (12 milligrams/mL) was solubilized in tert-butanol. FP antigen was first solubilized in dimethyl sulfoxide, although a water suspension of FP can also be used, and then added to the DOPC/cholesterol/tert-butanol mixture. The lipid A mimics JL-265 and JL-266 were first solubilized in dimethyl sulfoxide. Where indicated, JL-265 or JL-266 were also added to the FP/DOPC/tert-butanol mixture. A dry homogeneous mixture of antigen with or without lipid A mimic was prepared by removing the solvent and water present in the formulation by lyophilization. The dry mixture was then suspended in Incomplete Freund's adjuvant, a mineral oil-based model hydrophobic carrier. This formulation is henceforth referred to as DepoVax (DPX).
as §7, with “oil-based” for “liposome-based”, “(8” for “(7”, “DPX” for “liposomes”

[6] = system: antigen-specific IFN-gamma response to R9F peptide (splenocytes); assay: IFN-gamma ELISPOT immunogenicity of DPX vaccine (Example 14); type: in vivo, mouse (C57BL6); conditions: R9F+F21E in DPX with 5 micrograms lipid A mimic, FIG. 8; for enhancement of antigen-specific IFN-gamma response to R9F: s.c., spleens eight days after vaccination
Text: as §1
The peptides used in this example were synthesized by Polypeptide Group (San Diego, Calif., USA). Vaccines contained the MHC class I epitope HPV16E7 (H-2Db) 49-67 (RAHYNIVTF, R9F; […]; SEQ ID NO: 23).
as §8, with “R9F and F21E peptide antigens were” for “FP antigen was”, “sulfoxide” for “sulfoxide, although a water suspension of FP can also be used,”
To test the immunogenicity of the vaccine, naïve mice (n=5) were immunized subcutaneously with 50 microlitres of DPX vaccine containing R9F and F21E with no lipid A mimic (Group 1), 5 micrograms of JL-265 (Group 2) or 5 micrograms of JL-266 (Group 3). Mice in Group 4 (n=2) were not immunized and served as the naïve control. Eight days after vaccination, mice in all groups were terminated and spleens collected. A single cell suspension of splenocytes was prepared at a concentration of 5×10E6 cells per milliliter and 100 microlitres added to wells of a 96-well ELISPOT plate pre-coated with anti-IFN-gamma (BD Bioscience). In duplicate, 100 microlitres of media containing 20 micrograms per milliliter of an irrelevant peptide antigen or R9F was added to the splenocytes, or media containing no peptide as a background control. The plate was incubated overnight at 37° C. and developed next day following manufacturers instructions using AEC chromogen (Sigma-Aldrich). Spots were quantified using ELISPOT plate reader (C.T.L., Shaker Heights).

| Molecule | tumor volumes compared to control groups [1] | expression of CD40 and CD86 on CD11c positive dendritic cells [2] | induction of CD40 and CD86 relative to LPS [2] | Tumor Volume (mm^3) [3] [mm^3] | tumor volumes compared to control groups [3] | expression of CD40 and CD86 on CD11c positive dendritic cells, versus wild-type [4] | induction of CD40 and CD86 relative to LPS [4] | tumor volume fold smaller than control DepoVax composition (Group 1) [5] | Tumor Volume (mm^3) [5] [mm^3] | tumor volumes compared to control groups [5] | enhancement of antigen-specific IFN-gamma response to R9F ([6]; versus no lipid A mimic) | generation of an immune response (IFN-gamma ELISPOT) [6] | increase in the immune response (IFN-gamma ELISPOT) ([6]; versus no lipid A mimic) [fold] | expression of CD40 and CD86 on CD11c positive dendritic cells, versus wild-type ([4]; listed as polyI:C) |
| --- | --- | --- | --- | --- | --- | --- | --- | --- | --- | --- | --- | --- | --- | --- |
| CCCCCCCCCCCCCC(=O)O[C@H](CCCCCCCCCCC)CC(=O)NC1C(OC(=O)C[C@@H](CCCCCCCCCCC)OC(=O)CCCCCCCCCCCCC)[C@H](OP(=O)(O)O)C(CO)O[C@H]1OCCN(C(=O)C[C@@H](CCCCCCCCCCC)OC(=O)CCCCCCCCCCCCC)c1cccc(O)c1 (stereo in doubt) [JL-265] | significantly smaller tumor volumes | strong increased expression | the same as LPS | 319 ± 122 | significantly smaller tumor volumes | significantly reduced | slightly lower induction | about 3.1 fold | 445 ± 395 | significantly smaller tumor volumes | did not enhance | capable of generating an immune response |  |  |
| CCCCCCCCCCCCCC(=O)O[C@H](CCCCCCCCCCC)CC(=O)NC1C(OC(=O)C[C@@H](CCCCCCCCCCC)OC(=O)CCCCCCCCCCCCC)[C@H](OP(=O)(O)O)C(CO)O[C@H]1OCCN(C(=O)C[C@@H](CCCCCCCCCCC)OC(=O)CCCCCCCCCCCCC)c1cccc(OP(=O)(O)O)c1 (stereo in doubt) [JL-266] | significantly smaller tumor volumes | strong increased expression | the same as LPS | 380 ± 86 | significantly smaller tumor volumes | significantly reduced | slightly lower induction | ~6.3 fold | 219 ± 139 | significantly smaller tumor volumes | did |  | ~2 |  |
| lipopolysaccharide [LPS, reference compound] |  | increase in expression |  |  |  | significantly reduced |  |  |  |  |  |  |  |  |
| poly I:C [reference compound] |  | increase in expression |  |  |  | comparably to wild-type dendritic cells |  |  |  |  |  |  |  | comparable stimulation |
